# Molecular target: T1, Recombinant human liver GK1 (GST-GK) (Homo sapiens, UniProt P35557)
# T1 construct: made in house; host or cells: E. coli
# T1 sequence (P35557 1-466 isoform P35557-2): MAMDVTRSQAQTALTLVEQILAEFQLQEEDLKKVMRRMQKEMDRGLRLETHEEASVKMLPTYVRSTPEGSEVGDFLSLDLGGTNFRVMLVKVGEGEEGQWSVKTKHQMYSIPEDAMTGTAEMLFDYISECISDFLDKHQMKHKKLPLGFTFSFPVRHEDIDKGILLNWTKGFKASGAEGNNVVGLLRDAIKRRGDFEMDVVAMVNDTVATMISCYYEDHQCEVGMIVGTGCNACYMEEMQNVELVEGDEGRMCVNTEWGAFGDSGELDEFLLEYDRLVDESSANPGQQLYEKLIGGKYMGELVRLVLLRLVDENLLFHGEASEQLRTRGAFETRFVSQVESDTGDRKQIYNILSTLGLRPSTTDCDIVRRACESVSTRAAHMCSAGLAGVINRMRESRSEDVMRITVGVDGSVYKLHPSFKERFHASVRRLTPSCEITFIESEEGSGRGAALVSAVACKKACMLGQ
# Assay: In vitro glucokinase activity, G6PDH-coupled spectrophotometric assay
# Type: biochemical
# Details: 5 mM D-glucose, 30° C., pH 7.1
# Method: Glucokinase In Vitro Assay Protocol: Glucokinase (GK) was assayed by coupling the production of glucose-6-phosphate to the generation of NADH with glucose-6-phosphate dehydrogenase (G6PDH, 0.75-1 kunits/mg; Boehringer Mannheim, Indianapolis, Ind.) from Leuconostoc mesenteroides as the coupling enzyme (Scheme 2).
# Recombinant human liver GK1 was expressed in E. coli as a glutathione S-transferase fusion protein (GST-GK) [Liang et al, 1995] and was purified by chromatography over a glutathione-Sepharose 4B affinity column using the procedure provided by the manufacturer (Amersham Pharmacia Biotech, Piscataway, N.J.).
# The assay was conducted at 30° C. in a flat bottom 96-well tissue culture plate from Costar (Cambridge, Mass.) with a final incubation volume of 120 μL. The incubation reaction contained the following: 25 mM Hepes buffer (pH 7.1), 25 mM KCl, 5 mM D-glucose, 1 mM ATP, 1.8 mM NAD, 2 mM MgCl2, 1 μM sorbitol-6-phosphate, 1 mM dithiothreitol, test drug or 10% dimethylsulfoxide, ˜7 units/ml G6PDH, and GK (see below). All organic reagents were >98% pure and were from Boehringer Mannheim with the exceptions of D-glucose and Hepes which were from Sigma Chemical Co, St Louis, Mo. Test compounds were dissolved in dimethylsulfoxide and were added to the incubation reaction minus GST-GK in a volume of 12 μL to yield a final dimethylsulfoxide concentration of 10%. This mix was pre-incubated in the temperature controlled chamber of a SPECTRAmax 250 microplate spectrophotometer (Molecular Devices Corporation, Sunnyvale, Calif.) for 10 minutes to allow temperature equilibrium and then the reaction was started by the addition of 20 μL GST-GK.
# After addition of enzyme, the increase in optical density (OD) at 340 nm was monitored spectrophotometrically to determine the rate of change (OD340 per min). The GK activity (OD340/min) in control wells (10% dimethylsulfoxide minus GK activators) was compared with the activity in wells containing test GK activators, and the concentration of activator that produced a 50% increase in the activity of GK, i.e., the SC1.5, was calculated.
row,SC1.5 (concentration of activator that produced a 50% increase in the activity of GK) [µM],Compound
1,1.65,"Cn1ccc(NC(=O)C(CC2CCCC2)N2C(=O)C(=O)c3cc(OC(F)(F)F)ccc32)n1 (stereo not shown) [Example 31, 3-Cyclopentyl-2-(2,3-dioxo-5-trifluoromethoxy-2,3-dihydro-indol-1-yl)-N-(1-methyl-1H-pyrazol-3-yl)-propionamide]"
2,0.27,"O=C(Nc1nccs1)C(CC1CCCC1)N1C(=O)Cc2ccc(Cl)cc21 (stereo not shown) [Example 123, 2-(6-Chloro-2-oxo-2,3-dihydro-indol-1-yl)-3-cyclopentyl-N-thiazol-2-yl-propionamide]"
3,1.9,"O=C1C(=O)N(C(CC2CCCC2)C(=O)Nc2ccccn2)c2cccc(Cl)c21 (stereo not shown) [Example 14, 2-(4-Chloro-2,3-dioxo-2,3-dihydro-indol-1-yl)-3-cyclopentyl-N-pyridin-2-yl-propionamide]"
4,1.04,"O=C1C(=O)N(C(CC2CCCC2)C(=O)Nc2ccccn2)c2ccc(Cl)cc21 (stereo not shown) [Example 94, 2-(5-Chloro-2,3-dioxo-2,3-dihydro-indol-1-yl)-3-cyclopentyl-N-pyridin-2-yl-propionamide]"
5,13.42,"CC(C)CC(C(=O)Nc1ccccn1)N1C(=O)C(=O)c2c(Cl)cccc21 (stereo not shown) [Example 18, 2-(4-Chloro-2,3-dioxo-2,3-dihydro-indol-1-yl)-4-methyl-pentanoic acid pyridin-2-ylamide]"
6,0.81,"O=C(Nc1cnccn1)C(CC1CCCC1)N1C(=O)Cc2ccc(F)cc21 (stereo not shown) [Example 128, 3-Cyclopentyl-2-(6-fluoro-2-oxo-2,3-dihydro-indol-1-yl)-N-pyrazin-2-yl-propionamide]"
7,0.18,"O=C(Nc1ccccn1)C(CC1CCCC1)N1C(=O)Cc2ccc(F)cc21 (stereo not shown) [Example 127, 3-Cyclopentyl-2-(6-fluoro-2-oxo-2,3-dihydro-indol-1-yl)-N-pyridin-2-yl-propionamide]"
8,1.23,"O=C(Nc1ccccn1)C(CC1CCCC1)N1C(=O)Cc2c(Cl)cccc21 (stereo not shown) [Example 21, 2-(4-Chloro-2-oxo-2,3-dihydro-indol-1-yl)-3-cyclopentyl-N-pyridin-2-yl-propionamide]"
9,6.74,"CC(C)CC(C(=O)Nc1nccs1)N1C(=O)Cc2cc(Cl)ccc21 (stereo not shown) [Example 105, 2-(5-Chloro-2-oxo-2,3-dihydro-indol-1-yl)-4-methyl-pentanoic acid thiazol-2-ylamide]"
10,5.82,"CC(C)CC(C(=O)Nc1nccs1)N1C(=O)Cc2cc(Br)ccc21 (stereo not shown) [Example 72, 2-(5-Bromo-2-oxo-2,3-dihydro-indol-1-yl)-4-methyl-pentanoic acid thiazol-2-ylamide]"
11,12.84,"Cc1ccc2c(c1)CC(=O)N2C(CC(C)C)C(=O)Nc1ccccn1 (stereo not shown) [Example 90, 4-Methyl-2-(5-methyl-2-oxo-2,3-dihydro-indol-1-yl)-pentanoic acid pyridin-2-ylamide]"
12,21.28,"CC(C)CC(C(=O)Nc1ccn(C)n1)N1C(=O)C(=O)c2cc(OC(F)(F)F)ccc21 (stereo not shown) [Example 39, 2-(2,3-Dioxo-5-trifluoromethoxy-2,3-dihydro-indol-1-yl)-4-methyl-pentanoic acid (1-methyl-1H-pyrazol-3-yl)-amide]"
13,5.19,"O=C1C(=O)N(C(CC2CCCC2)C(=O)Nc2ccccn2)c2ccccc21 (stereo not shown) [Example 6, 3-Cyclopentyl-2-(2,3-dioxo-2,3-dihydro-indol-1-yl)-N-pyridin-2-yl-propionamide]"
14,7.72,"CC(C)CC(C(=O)Nc1nccs1)N1C(=O)C(=O)c2c(Cl)cccc21 (stereo not shown) [Example 20, 2-(4-Chloro-2,3-dioxo-2,3-dihydro-indol-1-yl)-4-methyl-pentanoic acid thiazol-2-ylamide]"
15,0.13,"O=C(Nc1ccccn1)C(CC1CCCC1)N1C(=O)Cc2cc(OC(F)(F)F)ccc21 (stereo not shown) [Example 33, 3-Cyclopentyl-2-(2-oxo-5-trifluoromethoxy-2,3-dihydro-indol-1-yl)-N-pyridin-2-yl-propionamide]"
16,0.38,"O=C(Nc1cnccn1)C(CC1CCCC1)N1C(=O)Cc2ccc(Cl)cc21 (stereo not shown) [Example 121, 2-(6-Chloro-2-oxo-2,3-dihydro-indol-1-yl)-3-cyclopentyl-N-pyrazin-2-yl-propionamide]"
17,0.23,"O=C1C(=O)N(C(CC2CCCC2)C(=O)Nc2ccccn2)c2cc(Cl)ccc21 (stereo not shown) [Example 118, 2-(6-chloro-2,3-dioxo-2,3-dihydro-indol-1-yl)-3-cyclopentyl-N-pyridin-2-yl-propionamide]"
18,2.94,"CS(=O)(=O)c1ccc2c(c1)N(C(CC1CCCC1)C(=O)Nc1nccs1)C(=O)C2 (stereo not shown) [Example 138, 3-Cyclopentyl-2-(6-methanesulfonyl-2-oxo-2,3-dihydro-indol-1-yl)-N-thiazol-2-yl-propionamide]"
19,18.64,"O=C1C(=O)N(C(CC2CCCC2)C(=O)Nc2cnccn2)c2ccccc21 (stereo not shown) [Example 1, 3-Cyclopentyl-2-(2,3-dioxo-2,3-dihydro-indol-1-yl)-N-pyrazin-2-yl-propionamide]"
20,2.24,"Cn1ccc(NC(=O)C(CC2CCCC2)N2C(=O)C(=O)c3ccc(Cl)cc32)n1 (stereo not shown) [Example 119, 2-(6-Chloro-2,3-dioxo-2,3-dihydro-indol-1-yl)-3-cyclopentyl-N-(1-methyl-1H-pyrazol-3-yl)-propionamide]"
21,22.75,"COc1ccc2c(c1)CC(=O)N2C(CC(C)C)C(=O)Nc1nccs1 (stereo not shown) [Example 56, 2-(5-Methoxy-2-oxo-2,3-dihydro-indol-1-yl)-4-methyl-pentanoic acid thiazol-2-ylamide]"
22,0.48,"O=C(Nc1ccccn1)C(CC1CCCC1)N1C(=O)Cc2cc(Br)ccc21 (stereo not shown) [Example 64, 2-(5-Bromo-2-oxo-2,3-dihydro-indol-1-yl)-3-cyclopentyl-N-pyridin-2-yl-propionamide]"
23,1.69,"O=C(Nc1nccs1)C(CC1CCCC1)N1C(=O)Cc2cc(Br)ccc21 (stereo not shown) [Example 66, 2-(5-Bromo-2-oxo-2,3-dihydro-indol-1-yl)-3-cyclopentyl-N-thiazol-2-yl-propionamide]"
24,0.63,"O=C(Nc1cnccn1)C(CC1CCCC1)N1C(=O)Cc2cc(OC(F)(F)F)ccc21 (stereo not shown) [Example 36, 3-Cyclopentyl-2-(2-oxo-5-trifluoromethoxy-2,3-dihydro-indol-1-yl)-N-pyrazin-2-yl-propionamide]"

# Same assay, conditions: @ 30 uM; 5 mM D-glucose, 30° C.
row,fold induction at 30 µM,Compound
1,1.44,"Cc1ccc2c(c1)C(=O)C(=O)N2C(CC(C)C)C(=O)Nc1ccn(C)n1 (stereo not shown) [Example 86, 4-Methyl-2-(5-methyl-2,3-dioxo-2,3-dihydro-indol-1-yl)-pentanoic acid (1-methyl-1H-pyrazol-3-yl)-amide]"

# Source: patent US20120142705A1, “ISATIN AND OXINDOLE COMPOUNDS” (priority 2010, published 2012)
